# Measured values as given in PMC6143625, “A high throughput screen for next-generation leads targeting malaria parasite transmission” (Nature Communications, 2018).
# Columns and labels:
# [1] = tested on: P. falciparum stage V male gametocytes (male gamete formation); test: P. falciparum dual gamete formation assay (Pf DGFA), male readout (exflagellation), 48 h carry-over format; assay type: cell-based, Plasmodium falciparum NF54; conditions: primary screen, 2 uM, 48 h incubation, single replicate
# Experimental: (§1) P. falciparum NF54 strain (originally isolated from an imported malaria case in the Netherlands in the 1980s; BEI Resources, cat. no. MRA-1000) asexual and sexual stages culture was performed as previously described. Gametocyte cultures were initiated at 1% asexual ring stage parasitaemia and 4% haematocrit in 40 ml final volume. To induce gametocyte production, complete culture medium (CM) (RPMI 1640 supplemented with 25 mM HEPES, 50 µg ml^−1 hypoxanthine, 2 g l^−1 NaHCO3 and 10% pooled human male type A+ serum) was replaced daily for 14 days without fresh erythrocyte addition. Human serum was obtained from Interstate Blood Bank, A^+ serotype; no aspirin 2 h before drawing and no antimalarials 2 weeks before drawing. On day 14 after culture induction, gametocyte production was assessed by thin smear and Giemsa staining, and exflagellation accurately counted in a haemocytometer. Gametocyte cultures with >0.2% exflagellation (compared to total erythrocyte cell number) were deemed acceptable for use in the Pf DGFA. Note, all human biological samples were sourced ethically and their research use was in accord with the terms of the informed consents under an IRB/EC approved protocol.
# (§2) In screening mode, the assay was performed as described in Delves et al.[35] with a mean Z′ factor of 0.56 ± 0.14 (SD) (male) and 0.71 ± 0.17 (SD) (female). Pooled mature gametocyte cultures with the capacity to yield >0.2% exflagellation (of total cells) were diluted in CM to 14 million cells per ml and so that 700,000 cells were dispensed in 50 µl into each well of the warmed 384-well screening plates. Parasites were incubated in the plates with compounds for 48 h in a humidified chamber under 92%N2/5% CO2/3% O2 gas mix before gamete formation was triggered by addition of 10 µl per well ookinete medium (RPMI 1640 supplemented with 25 mM HEPES, 50 µg ml^−1 hypoxanthine, 2 g l^−1 NaHCO3, 100 µM xanthurenic acid) containing 0.5 µg ml^−1 anti-Pfs25 clone 4B7 (BEI Resources, cat. no. MRA-315) conjugated to the fluorophore Cy3 (GE Healthcare), and also by cooling the plate at 4 °C for 4 min and then a further 5 min at 28 °C. Exflagellation was recorded immediately by brightfield microscopy using a Nikon Ti-E widefield microscope at ×4 objective, ×1.5 zoom, recording a 10-frame video time-lapse over 2 s for each well. Afterwards, plates were incubated in the dark at 28 °C for a further 24 h to allow female gametes to maximally express Pfs25 on their surface. Female gamete formation was recorded by single-image fluorescence microscopy using the same microscope and magnification as above. Exflagellation and female gamete formation were quantified by specific algorithms designed with the open-source ICY Image Analysis software.
# (§3) Assay performance statistics, such as signal to background ratio, Z′ and robust 3×SD activity cut-off were calculated using templates in ActivityBase XE (IDBS, Guilford, Surrey, UK). Hit population analysis and visualisation were conducted using Spotfire DecisionSite (Spotfire, Inc., Somerville, Massachusetts). The pIC50 (−log IC50) values were obtained using the ActivityBase XE nonlinear regression function in the full curve analysis bundle. In screening mode, the Pf DGFA achieved a mean Z′ factor of 0.56 ± 0.14 (SD) (male) and 0.71 ± 0.17 (SD) (female).
# [2] = tested on: P. falciparum stage V female gametocytes (female gamete formation); test: P. falciparum dual gamete formation assay (Pf DGFA), female readout (Pfs25 expression), 48 h carry-over format; assay type: cell-based, Plasmodium falciparum NF54; conditions: primary screen, 2 uM, 48 h incubation, single replicate
# Experimental: as §1
# as §2, with “Parasites were incubated in the plates with compounds for 48 h in a humidified chamber under” left out
# as §3
Structure (SMILES),%Inhibition Male @2uM [1] [%],%Inhibition Female @2uM [2] [%]
NC(=O)c1ccc(N2CCCCC2)c(NC(=O)c2cc(Br)ccc2F)c1 [DDD01080647],<30,45.72
CCc1cnc(CN(C(C)=O)C2CCN(CCS(C)(=O)=O)C2)o1 (stereo not shown) [DDD01081064],46.67,<30
CCOC1CCC2(CCN(C(=O)c3csnn3)CC2)c2ccccc21 (stereo not shown) [DDD01081288],95.81,<30
CS(=O)(=O)N1Cc2ccnn2CC(C(=O)NCc2cccnc2)C1 (stereo not shown) [DDD01081357],43.36,<30
COc1ccc2c(c1)C1(CCNCC1)CC2NC1CC1 (stereo not shown) [DDD01081368],45.77,<30
O=C1CC[C@@H]2[C@@H](CCN2S(=O)(=O)C2CC2)N1CC1CC1 [DDD01081437],31.40,<30
c1c(CN2CCOCC2)nc2n1CCN(CC1CC1)C2 [DDD01081604],36.99,<30
CN(C)[C@@H]1CCN(S(C)(=O)=O)[C@H]1Cc1ccccc1 [DDD01081694],32.12,<30
CCc1cnc(N2CC[C@H]3[C@@H]2CCC(=O)N3c2ccccc2)nc1 [DDD01081766],33.06,<30
CC(C)n1nc(CN2CCCC2=O)c2c1CN(C(=O)c1ccc[nH]1)C2 [DDD01081769],<30,30.49
O=C(c1ccoc1)N1CCOC2(COCCN(CC3CC3)C2)C1 (stereo not shown) [DDD01082156],<30,30.05
CC(C)N(C)Cc1cncc2c1CCN(CC(=O)N(C)C)C2 [DDD01082190],<30,42.20
CC1c2ncc(Cn3cccn3)n2CCN1c1ncccn1 (stereo not shown) [DDD01082239],<30,34.70
CCCN1CCC(c2nc3ccc(-c4cccc(OC)c4)cn3n2)CC1 [DDD01082327],<30,35.67
CCOCC(=O)N1CCc2nc(C)nc(NC(C)C)c2CC1 [DDD01082409],45.90,<30
O=C(NC1CC1)[C@H]1CC[C@@H]2[C@@H](CCN2CCOCc2ccccc2)O1 [DDD01082763],87.75,<30
Cn1cncc1C(=O)N1C[C@@H]2CCN(c3cnccn3)C[C@@H]2C1 [DDD01082777],<30,40.85
O=S(=O)(c1ccccc1)N1CCC2(CCCN2Cc2ccccc2Cl)C1 (stereo not shown) [DDD01083172],37.32,<30
CS(=O)(=O)NCc1nnc2n1CCN(Cc1cccnc1)C2 [DDD01083181],31.87,<30
COc1ccc(CN2CC[C@@H](O)[C@@H]2Cc2cnn(C)c2)cc1 [DDD01083182],38.13,<30
CC1=N[C@@]2(CC[C@@H]3CN(S(=O)(=O)CC(C)C)C[C@@H]32)C(=O)N1CC1CC1 [DDD01083262],<30,94.03
CN(C)C(=O)N1CCCC2(CCN(c3ccsc3)C2=O)C1 (stereo not shown) [DDD01083808],<30,43.49

Structure (SMILES),%Inhibition Male @2uM [1] [%],%Inhibition Female @2uM [2] [%]
CN(C)[C@@H]1CCN(C(=O)Cc2cccs2)[C@H]1Cc1ccncc1 [DDD01083822],35.35,<30
O=C(c1ccnnc1)N1C[C@H](OCc2ccccn2)[C@H]2COC[C@H]21 [DDD01084503],<30,32.17
CN(C)CCN1CCN(C)c2nc(-c3ccccc3)ncc2C1=O [DDD01235874],34.25,<30
CC(C)[C@H](NS(C)(=O)=O)C(=O)NCc1cc(-c2ccco2)n[nH]1 [DDD01235905],31.18,<30
CC(C)[C@H](NS(C)(=O)=O)C(=O)NCc1cc(-c2ccccc2)n[nH]1 [DDD01235932],32.71,<30
CC(C)(C)Nc1nc(-c2cccnc2)c(-c2ccnc(NCCO)n2)s1 [DDD01235967],38.85,<30
CCOCC(=O)N1CCC(c2nccn2Cc2cscn2)CC1 [DDD01243474],109.47,<30
O=C(O)CCc1cc2n(n1)CCCN(C(=O)c1ccc(F)cc1F)C2 [DDD01243729],76.28,<30
NCC1CCCN(c2nc(-c3ccccc3)nc3c2CCNCC3)C1 (stereo not shown) [DDD01244614],71.27,30.18
Cn1nnnc1SCCNC(=O)C1CCN(C(=O)C2CC2)CC1 [DDD01244691],73.04,<30
CCC(C(=O)N(C)C)N1CCC(c2nccn2Cc2cscn2)CC1 (stereo not shown) [DDD01244731],126.32,<30
CN(C)c1ccc(C(=O)N2CCCN(C3CCCCC3)CC2)cn1 [DDD01244855],<30,30.12
COC(=O)c1ccc(C(=O)N2CCCC(Nc3ccc(F)cc3)C2)cc1 (stereo not shown) [DDD01244904],109.47,<30
CN(Cc1cnn(C)c1)c1nccc(-c2cc(C(=O)O)ccn2)n1 [DDD01245058],<30,33.22
Cc1nc[nH]c1CN1CCn2nc(CN3Cc4ccccc4C3)cc2C1 [DDD01245298],30.45,<30
COc1cccc2c1OCC(C(=O)N1CCN(CCS(C)(=O)=O)CC1)C2 (stereo not shown) [DDD01245746],56.62,<30
CCNC(=O)[C@@H]1C[C@H](NC(=O)c2cncnc2C)CN1Cc1ccsc1 [DDD01245940],<30,96.27
Cc1cccc(=O)n1CCCNc1nc(N(C)C)nc2c1CCNC2 [DDD01245962],35.31,<30
CN(C)Cc1nnc(C2CCN(c3ncccc3Cl)CC2)n1C1CC1 [DDD01246077],30.72,<30
COCCN(C)CCN1CC2(CCN(C3CCOC3)CC2)OC1=O (stereo not shown) [DDD01246090],126.32,<30
COc1cccc2c1OCC(C(=O)N1Cc3ccccc3C1)C2 (stereo not shown) [DDD01246187],112.07,<30
O=C(c1ccccn1)N1C[C@H]2CC[C@@H](C1)N(C(=O)CCN1CCCC1)C2 [DDD01246765],99.89,<30
